In publication PMC4774911, “Biochemical Screening of Five Protein Kinases from Plasmodium falciparum against 14,000 Cell-Active Compounds” (PLoS ONE, 2016):
Several values for one entry are separate records, joined by “and”; a condition that tells them apart may be missing. Equal entries are not always repeated.

What was measured:
Test in all cases: biochemical
BMP2K = BMP2K (Homo sapiens, UniProt Q9NSY1)
BRAF = BRAF (Homo sapiens, UniProt P15056)
CSNK1A1 = CSNK1A1 (Homo sapiens, UniProt P48729)
EPHB6 = molecular target: T1, EPHB6 (Homo sapiens, UniProt O15197)
T1 sequence (O15197 1-1021): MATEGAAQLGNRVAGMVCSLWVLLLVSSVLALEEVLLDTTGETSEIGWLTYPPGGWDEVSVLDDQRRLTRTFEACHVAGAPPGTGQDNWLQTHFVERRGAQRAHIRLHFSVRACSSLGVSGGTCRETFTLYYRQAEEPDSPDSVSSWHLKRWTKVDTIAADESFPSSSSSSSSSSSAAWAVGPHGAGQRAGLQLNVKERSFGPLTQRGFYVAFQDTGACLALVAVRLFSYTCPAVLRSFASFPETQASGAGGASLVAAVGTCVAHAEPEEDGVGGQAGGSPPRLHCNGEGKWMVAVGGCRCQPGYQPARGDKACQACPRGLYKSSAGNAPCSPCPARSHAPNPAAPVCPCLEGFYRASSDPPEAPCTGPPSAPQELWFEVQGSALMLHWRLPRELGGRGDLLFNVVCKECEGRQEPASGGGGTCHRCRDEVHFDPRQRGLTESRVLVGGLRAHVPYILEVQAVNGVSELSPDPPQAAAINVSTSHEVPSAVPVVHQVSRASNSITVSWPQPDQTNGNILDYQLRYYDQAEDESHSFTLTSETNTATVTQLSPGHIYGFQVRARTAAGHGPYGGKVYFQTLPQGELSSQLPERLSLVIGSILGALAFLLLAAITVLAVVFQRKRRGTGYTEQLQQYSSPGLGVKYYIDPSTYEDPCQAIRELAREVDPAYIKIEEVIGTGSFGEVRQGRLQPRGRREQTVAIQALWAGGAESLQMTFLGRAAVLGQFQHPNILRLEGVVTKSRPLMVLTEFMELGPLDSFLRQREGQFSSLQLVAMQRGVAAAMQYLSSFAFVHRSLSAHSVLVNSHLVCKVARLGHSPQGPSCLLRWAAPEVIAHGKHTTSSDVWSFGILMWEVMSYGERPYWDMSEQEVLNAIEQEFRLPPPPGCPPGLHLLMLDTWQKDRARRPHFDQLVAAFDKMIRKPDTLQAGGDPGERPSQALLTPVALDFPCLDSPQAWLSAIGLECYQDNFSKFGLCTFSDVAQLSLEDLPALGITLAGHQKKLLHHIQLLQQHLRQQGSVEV

MAP2K4 = molecular target: T2, MAP2K4 (Homo sapiens, UniProt P45985)
T2 sequence (P45985 1-399): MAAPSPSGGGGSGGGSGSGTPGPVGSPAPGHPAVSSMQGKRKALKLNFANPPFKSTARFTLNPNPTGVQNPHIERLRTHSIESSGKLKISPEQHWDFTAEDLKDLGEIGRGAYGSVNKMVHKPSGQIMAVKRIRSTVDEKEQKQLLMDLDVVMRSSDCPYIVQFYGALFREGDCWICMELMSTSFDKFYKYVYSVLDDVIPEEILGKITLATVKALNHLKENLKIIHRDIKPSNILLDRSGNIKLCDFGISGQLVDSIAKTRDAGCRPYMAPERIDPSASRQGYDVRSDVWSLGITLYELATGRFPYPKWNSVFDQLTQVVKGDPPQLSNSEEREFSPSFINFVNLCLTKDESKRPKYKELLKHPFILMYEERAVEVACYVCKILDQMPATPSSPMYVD

MARK2 = MARK2 (Homo sapiens, UniProt Q7KZI7)
MELK = MELK (Homo sapiens, UniProt Q14680)
TEC = molecular target: T3, TEC (Homo sapiens, UniProt P42680)
T3 sequence (P42680 1-631): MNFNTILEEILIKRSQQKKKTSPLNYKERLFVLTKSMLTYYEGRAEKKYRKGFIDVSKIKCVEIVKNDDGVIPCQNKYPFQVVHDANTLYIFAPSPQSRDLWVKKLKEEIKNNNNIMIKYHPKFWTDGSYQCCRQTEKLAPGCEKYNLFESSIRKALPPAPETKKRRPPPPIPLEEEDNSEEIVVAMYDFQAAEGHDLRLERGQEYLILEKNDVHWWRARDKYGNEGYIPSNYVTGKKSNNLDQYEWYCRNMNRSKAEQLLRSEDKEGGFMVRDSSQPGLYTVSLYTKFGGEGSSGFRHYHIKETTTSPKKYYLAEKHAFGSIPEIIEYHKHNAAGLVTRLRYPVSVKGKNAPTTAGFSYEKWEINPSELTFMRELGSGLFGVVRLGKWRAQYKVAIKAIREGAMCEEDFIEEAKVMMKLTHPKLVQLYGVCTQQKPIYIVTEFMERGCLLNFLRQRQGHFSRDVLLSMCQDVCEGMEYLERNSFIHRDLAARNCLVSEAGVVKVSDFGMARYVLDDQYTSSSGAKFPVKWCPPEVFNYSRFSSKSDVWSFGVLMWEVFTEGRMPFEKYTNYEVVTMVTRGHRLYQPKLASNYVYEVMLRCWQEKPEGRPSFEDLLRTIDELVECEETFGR

Sequence of CSNK1A1 (P48729 whole entry): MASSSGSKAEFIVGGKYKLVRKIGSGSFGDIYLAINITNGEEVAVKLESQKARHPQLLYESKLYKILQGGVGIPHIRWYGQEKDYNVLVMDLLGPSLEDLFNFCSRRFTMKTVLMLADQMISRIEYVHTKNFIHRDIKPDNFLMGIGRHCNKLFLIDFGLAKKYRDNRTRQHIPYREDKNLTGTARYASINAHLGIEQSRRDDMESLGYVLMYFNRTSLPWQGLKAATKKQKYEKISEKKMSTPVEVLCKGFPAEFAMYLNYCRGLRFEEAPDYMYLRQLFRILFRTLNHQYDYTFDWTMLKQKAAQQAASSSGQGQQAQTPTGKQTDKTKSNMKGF
Sequence of MARK2 (Q7KZI7 whole entry): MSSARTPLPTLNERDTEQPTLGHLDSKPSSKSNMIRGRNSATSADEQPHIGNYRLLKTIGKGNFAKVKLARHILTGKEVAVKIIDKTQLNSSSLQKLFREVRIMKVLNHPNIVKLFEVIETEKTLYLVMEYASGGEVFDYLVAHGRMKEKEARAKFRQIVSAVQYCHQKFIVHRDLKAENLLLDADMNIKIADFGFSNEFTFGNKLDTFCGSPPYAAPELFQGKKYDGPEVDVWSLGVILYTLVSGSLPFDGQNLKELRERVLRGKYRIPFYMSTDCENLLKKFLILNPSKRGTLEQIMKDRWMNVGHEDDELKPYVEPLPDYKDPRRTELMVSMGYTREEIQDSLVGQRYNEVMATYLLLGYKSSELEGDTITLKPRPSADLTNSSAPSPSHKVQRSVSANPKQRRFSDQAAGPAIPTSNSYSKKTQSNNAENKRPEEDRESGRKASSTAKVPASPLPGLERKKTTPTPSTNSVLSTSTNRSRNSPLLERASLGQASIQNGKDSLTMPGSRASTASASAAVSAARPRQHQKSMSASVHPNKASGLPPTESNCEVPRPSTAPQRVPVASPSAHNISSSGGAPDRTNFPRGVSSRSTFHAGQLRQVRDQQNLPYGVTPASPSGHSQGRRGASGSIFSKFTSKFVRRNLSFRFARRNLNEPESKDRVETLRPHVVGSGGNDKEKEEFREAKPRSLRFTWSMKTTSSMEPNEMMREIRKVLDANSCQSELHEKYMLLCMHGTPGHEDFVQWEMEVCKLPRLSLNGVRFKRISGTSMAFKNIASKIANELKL
Sequence of BRAF (P15056 whole entry): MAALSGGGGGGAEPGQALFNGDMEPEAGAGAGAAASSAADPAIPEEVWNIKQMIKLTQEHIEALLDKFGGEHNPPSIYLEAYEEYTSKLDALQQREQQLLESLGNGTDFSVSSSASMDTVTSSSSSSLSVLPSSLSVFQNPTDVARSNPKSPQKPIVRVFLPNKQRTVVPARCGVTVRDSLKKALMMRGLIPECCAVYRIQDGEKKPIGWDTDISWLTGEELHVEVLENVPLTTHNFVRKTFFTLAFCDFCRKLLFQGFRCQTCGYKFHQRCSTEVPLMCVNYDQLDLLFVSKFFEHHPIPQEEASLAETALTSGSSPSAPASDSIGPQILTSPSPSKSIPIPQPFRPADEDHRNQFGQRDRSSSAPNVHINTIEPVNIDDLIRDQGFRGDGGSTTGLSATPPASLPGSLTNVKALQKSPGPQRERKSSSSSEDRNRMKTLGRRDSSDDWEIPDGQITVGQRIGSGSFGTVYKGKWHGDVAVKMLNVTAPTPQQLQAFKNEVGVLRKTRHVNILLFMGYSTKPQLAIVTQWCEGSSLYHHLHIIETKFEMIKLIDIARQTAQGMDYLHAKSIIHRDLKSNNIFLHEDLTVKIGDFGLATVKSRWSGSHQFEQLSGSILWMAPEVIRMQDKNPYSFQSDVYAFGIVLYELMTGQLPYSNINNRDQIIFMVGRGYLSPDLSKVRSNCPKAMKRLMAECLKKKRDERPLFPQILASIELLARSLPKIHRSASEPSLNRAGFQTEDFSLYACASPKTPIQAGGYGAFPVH
Sequence of MELK (Q14680 whole entry): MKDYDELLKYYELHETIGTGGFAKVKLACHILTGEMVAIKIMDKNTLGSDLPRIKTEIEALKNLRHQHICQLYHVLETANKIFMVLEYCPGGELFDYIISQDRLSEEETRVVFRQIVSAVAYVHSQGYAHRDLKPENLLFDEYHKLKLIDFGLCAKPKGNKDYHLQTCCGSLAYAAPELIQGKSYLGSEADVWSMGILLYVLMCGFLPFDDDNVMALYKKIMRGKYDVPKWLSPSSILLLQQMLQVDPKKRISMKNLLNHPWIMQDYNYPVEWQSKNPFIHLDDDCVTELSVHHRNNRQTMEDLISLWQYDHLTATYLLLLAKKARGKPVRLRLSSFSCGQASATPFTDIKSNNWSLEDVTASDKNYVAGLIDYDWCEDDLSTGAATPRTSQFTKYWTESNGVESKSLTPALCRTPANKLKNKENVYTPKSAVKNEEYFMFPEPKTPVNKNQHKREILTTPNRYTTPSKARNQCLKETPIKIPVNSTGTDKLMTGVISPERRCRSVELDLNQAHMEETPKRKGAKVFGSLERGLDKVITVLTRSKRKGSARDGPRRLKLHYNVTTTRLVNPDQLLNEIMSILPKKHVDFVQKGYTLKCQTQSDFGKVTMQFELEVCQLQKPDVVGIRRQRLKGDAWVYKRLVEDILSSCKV
Sequence of BMP2K (Q9NSY1 whole entry): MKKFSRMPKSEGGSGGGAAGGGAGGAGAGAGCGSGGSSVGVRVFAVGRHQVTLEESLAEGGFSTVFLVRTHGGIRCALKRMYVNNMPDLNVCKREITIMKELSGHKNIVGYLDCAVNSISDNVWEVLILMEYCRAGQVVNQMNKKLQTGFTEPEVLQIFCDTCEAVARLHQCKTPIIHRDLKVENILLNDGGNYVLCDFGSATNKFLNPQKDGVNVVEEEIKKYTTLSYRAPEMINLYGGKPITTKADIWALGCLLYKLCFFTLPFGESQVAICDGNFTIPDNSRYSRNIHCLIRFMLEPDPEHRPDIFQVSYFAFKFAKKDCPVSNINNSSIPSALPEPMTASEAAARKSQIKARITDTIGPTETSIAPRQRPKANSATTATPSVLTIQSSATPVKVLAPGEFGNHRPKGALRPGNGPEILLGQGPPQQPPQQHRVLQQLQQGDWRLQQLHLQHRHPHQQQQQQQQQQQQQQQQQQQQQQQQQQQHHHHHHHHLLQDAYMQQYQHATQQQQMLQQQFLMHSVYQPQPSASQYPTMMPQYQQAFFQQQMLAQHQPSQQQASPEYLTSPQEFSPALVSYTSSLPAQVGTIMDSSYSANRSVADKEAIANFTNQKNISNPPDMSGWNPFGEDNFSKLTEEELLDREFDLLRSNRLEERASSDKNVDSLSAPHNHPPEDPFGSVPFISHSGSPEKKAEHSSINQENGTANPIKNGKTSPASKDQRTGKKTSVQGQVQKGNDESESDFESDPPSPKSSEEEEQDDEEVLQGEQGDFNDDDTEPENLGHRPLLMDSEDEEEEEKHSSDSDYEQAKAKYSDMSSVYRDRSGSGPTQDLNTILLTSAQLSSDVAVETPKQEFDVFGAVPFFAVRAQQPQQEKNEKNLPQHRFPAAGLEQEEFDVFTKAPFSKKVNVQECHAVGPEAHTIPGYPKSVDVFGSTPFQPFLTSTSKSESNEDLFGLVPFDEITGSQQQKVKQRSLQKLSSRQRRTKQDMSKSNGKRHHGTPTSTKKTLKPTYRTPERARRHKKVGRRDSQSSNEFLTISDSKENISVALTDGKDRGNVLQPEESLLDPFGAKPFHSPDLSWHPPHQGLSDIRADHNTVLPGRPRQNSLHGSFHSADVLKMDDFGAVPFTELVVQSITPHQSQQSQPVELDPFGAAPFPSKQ

| SMILES | IC50 (BMP2K) | IC50 (BRAF) | IC50 (CSNK1A1) | IC50 (EPHB6) [µM] | IC50 (MAP2K4) [µM] | IC50 (MARK2) | IC50 (MELK) | IC50 (TEC) |
| --- | --- | --- | --- | --- | --- | --- | --- | --- |
| CN(C)CC(O)COc1ccc(Nc2ncc([N+](=O)[O-])c(Nc3ccccc3O)n2)cc1.O=C(O)C(F)(F)F (stereo not drawn) [TCMDC-141399] | > 20000 nM | > 20000 nM | 9900 nM | > 20 | > 20 | 6400 nM | > 20 µM | > 20000 nM |
| Cl.NCC1(c2nc(-c3ccc(Cl)c(O)c3)c(-c3ccncc3)[nH]2)CCCCC1 [TCMDC-141154] | > 20000 nM | 1100 nM and 900 nM | 290 nM and 330 nM | > 20 | > 20 | > 20000 nM | 4.7 µM and 4.5 µM | > 20000 nM |
| CN1CCN(c2ccc(Nc3ncc(C#N)c(Nc4ccccc4C(N)=O)n3)cc2)CC1.Cl [TCMDC-134116] | 350 nM and 290 nM | 2000 nM | 960 nM and 1400 nM | > 20 | > 20 | 220 nM and 210 nM | 0.36 µM and 0.35 µM | 460 nM and 490 nM |
